Results from patent US7041785B1, “B1-bradykinin receptor antagonists and use thereof” (Université de Sherbrooke, priority 1996, dated 2006).
Non-standard residues stand in square brackets, D forms with d. Residues, ends and D or L forms follow the SMILES beside them. Tyr(3,5-I2) = N[C@@H](Cc1cc(I)c(O)c(I)c1)C(=O)O; Oic = O=C(O)[C@@H]1C[C@@H]2CCCC[C@@H]2N1; 2Nal = N[C@@H](Cc1ccc2ccccc2c1)C(=O)O; d2Nal = N[C@H](Cc1ccc2ccccc2c1)C(=O)O; Hyp = O=C(O)[C@@H]1C[C@@H](O)CN1; Tic = O=C(O)[C@@H]1Cc2ccccc2CN1; dTic = O=C(O)[C@H]1Cc2ccccc2CN1; 2Thi = N[C@@H](Cc1cccs1)C(=O)O; Ahx = NCCCCCC(=O)O; Sar = CNCC(=O)O

Experiments:
B2 receptor = molecular target: T1, B2 receptor (Oryctolagus cuniculus, UniProt Q28642); conditions: vs BK; captopril 1 μmol/L; Inactive = no detectable antagonistic effect at ≦ 10 μg/ml
T1 sequence (Q28642 1-367): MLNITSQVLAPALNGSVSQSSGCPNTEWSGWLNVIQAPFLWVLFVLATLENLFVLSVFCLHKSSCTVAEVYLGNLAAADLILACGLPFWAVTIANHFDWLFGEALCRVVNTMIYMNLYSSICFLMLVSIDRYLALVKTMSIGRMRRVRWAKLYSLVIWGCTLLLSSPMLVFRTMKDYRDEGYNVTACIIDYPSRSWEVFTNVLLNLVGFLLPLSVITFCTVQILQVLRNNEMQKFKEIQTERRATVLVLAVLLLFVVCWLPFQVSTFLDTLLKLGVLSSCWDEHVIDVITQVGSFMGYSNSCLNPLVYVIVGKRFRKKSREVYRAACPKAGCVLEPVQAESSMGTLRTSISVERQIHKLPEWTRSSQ

human B1 receptor = molecular target: T2, human B1 receptor (Homo sapiens, UniProt P46663); test: cell-based; conditions: for Kb: Human umbilical vein B1 receptor pA2, vs desArg9BK; for Human umbilical vein B1 receptor α^E: residual agonistic activity at 10 μg/mL
T2 sequence (P46663 1-353): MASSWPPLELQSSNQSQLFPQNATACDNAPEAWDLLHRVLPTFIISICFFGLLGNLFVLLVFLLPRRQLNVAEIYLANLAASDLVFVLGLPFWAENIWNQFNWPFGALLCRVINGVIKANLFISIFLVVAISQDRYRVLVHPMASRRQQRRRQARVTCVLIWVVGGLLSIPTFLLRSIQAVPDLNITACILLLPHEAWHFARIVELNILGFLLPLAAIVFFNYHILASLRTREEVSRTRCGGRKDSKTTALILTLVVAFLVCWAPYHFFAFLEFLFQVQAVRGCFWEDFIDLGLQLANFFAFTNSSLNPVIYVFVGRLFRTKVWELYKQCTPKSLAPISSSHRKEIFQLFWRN
Summary of the method: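 Isolated rabbit jugular vein (captopril 1 μmol/L), guinea pig ileum, endothelium-free rabbit aorta and human umbilical vein, in Krebs at 37 °C, with isometric tension recorded. Agonism was tested at 10 μg/mL.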

human B2 receptor = molecular target: T3, human B2 receptor (Homo sapiens, UniProt P30411); test: Human umbilical vein bioassay in presence of Lys(Leu8)desArg9BK, B2 receptor; assay type: cell-based; conditions: vs BK, Lys(Leu8)desArg9BK 1 μmol/L present
T3 construct: Helical strips of HUV were prepared according to Gobeil et al; from tissue; host or cells: human umbilical vein helical strips
T3 sequence (P30411 1-391): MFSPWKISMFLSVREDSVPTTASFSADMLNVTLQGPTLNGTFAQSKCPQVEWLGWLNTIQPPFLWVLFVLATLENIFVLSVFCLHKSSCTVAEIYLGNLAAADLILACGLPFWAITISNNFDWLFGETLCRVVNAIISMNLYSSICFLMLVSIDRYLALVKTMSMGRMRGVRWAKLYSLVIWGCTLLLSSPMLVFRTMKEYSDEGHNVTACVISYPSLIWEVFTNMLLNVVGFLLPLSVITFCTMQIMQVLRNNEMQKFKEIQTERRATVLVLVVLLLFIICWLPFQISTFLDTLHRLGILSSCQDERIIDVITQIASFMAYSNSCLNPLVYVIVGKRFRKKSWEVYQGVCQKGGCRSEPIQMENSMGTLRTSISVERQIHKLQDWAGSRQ
Description: Tissues were taken from New Zealand white rabbits (1.5–2.5 kg) and Dunken Hartley guinea pigs (250–350 g) of either sex, killed by stunning and exsanguination. Umbilical cords were taken from healthy women 22–40 years old after spontaneous delivery at term. The rabbit jugular vein (RbJV), the guinea pig ileum (GPI), two preparations containing B2 receptors, the rabbit aorta (RbA) (B1 receptor) and the human umbilical vein (HUV), a mixed preparation containing both B1 and B2 receptors^10, were used. Helical strips of RbJV treated with 1 μmol/L of captopril to avoid peptide degradation by the angiotensin-converting enzyme (ACE), alias kininase II were prepared according to Gaudreau et al.^11 Helical strips of RbA devoid of endothelium were prepared according to Furchgott and Bhadrakom^12. Longitudinal segments of GPI were prepared with the procedure described by Rang^13. Helical strips of HUV were prepared according to Gobeil et al.^10. The tissues were suspended in 10-ml organ baths containing warm (37EC), oxygenated (95% O2–5% CO2) Krebs solution of the following composition in mmol/L; NaCl: 118.1; KCl: 4.7; CaCl26H2O: 2.5; KH2PO4: 1.2; MgSO47H2O: 1.18; NaHCO3: 25.0 and D-Glucose: 5.5. The RbA and the HUV were stretched with an initial tension of 2 g, whereas the RbJV and the GPI were loaded with 0.5 g. Changes of tension produced by the various agents were measured with Grass isometric transducers (model FT 03C, Grass Instrument Co., Quincy, Mass.). […] Before testing the drugs, the tissues were allowed to equilibrate for 60–120 min during which time the tissues were repeatedly washed and the tension readjusted every 15 min.
At the beginning of each experiment, a submaximal dose of bradykinin (BK) (9 nmol/L), was applied repeatedly on the RbJV, the GPI or the HUV to ensure that tissues responded with stable contractions. […] A similar protocol was used for the HUV.
Repeated applications of a singl and double concentration of BK (on RbJV, GPI and HUV) and of desArg^9BK (RbA and HUV) were made in the absence and in presence of the various peptides to evaluate their apparent affinities as antagonists, in terms of pA2 (-log10 of the molar concentration of antagonist that reduces the effect of a double concentration of agonist to that of a single one)^14. The antagonists were applied 10 min before measuring the myotropic effects of either BK (the B2 receptor agonist) or desArg^9BK (the B1 receptor agonist). […] All kinin antagonists were initially applied to tissues at concentration of 10 μg/mL to measure their potential agonistic activities (α^E) in comparison with BK (in the B2 receptor preparations) or desArg^9BK (in the B1 receptor preparations).

SMILES | Rb.J.V. pA2 (B2 receptor) | Kb (human B1 receptor; HOE140 400 nmol/L present) [nM] | Human umbilical vein B2 receptor pA2 (human B2 receptor) | Human umbilical vein B1 receptor α^E (human B1 receptor) | Human umbilical vein B1 receptor pA2 (human B1 receptor; vs desArg9BK, HOE140 400 nmol/L present)
CC(C)C[C@H](NC(=O)[C@H]1Cc2ccccc2CN1C(=O)[C@H](CO)NC(=O)[C@H](Cc1ccccc1)NC(=O)CNC(=O)[C@@H]1CCCN1C(=O)[C@@H]1CCCN1C(=O)[C@@H](N)CCCNC(=N)N)C(=O)O [Compound 8, (D-Tic^7, Leu^8)desArg^9BK] (H-RPPGFS[dTic]L-OH; N-terminus and C-terminus assumed) | Inactive | 2750 | Inactive | – | –
CC[C@H](C)[C@H](NC(=O)[C@H]1Cc2ccccc2CN1C(=O)[C@H](CO)NC(=O)[C@H](Cc1ccccc1)NC(=O)CNC(=O)[C@@H]1CCCN1C(=O)[C@@H]1CCCN1C(=O)[C@H](CCCNC(=N)N)NC(=O)[C@H](N)CCCNC(=N)N)C(=O)O [Compound 13, D-Arg(D-Tic^7, Ile^8)desArg^9BK] (H-[dR]RPPGFS[dTic]I-OH; N-terminus and C-terminus assumed) | – | 22.9 | Inactive | – | –
CC[C@H](C)[C@H](NC(=O)[C@@H]1Cc2ccccc2CN1C(=O)[C@H](CO)NC(=O)[C@H](Cc1ccccc1)NC(=O)CNC(=O)[C@@H]1CCCN1C(=O)[C@@H]1CCCN1C(=O)[C@H](CCCNC(=N)N)NC(=O)[C@H](N)CCCNC(=N)N)C(=O)O [Compound 14, D-Arg(L-Tic^7, Ile^8)desArg^9BK] (H-[dR]RPPGFS[Tic]I-OH; N-terminus and C-terminus assumed) | – | 4680 | Inactive | – | –
CC(=O)N[C@@H](CCCCN)C(=O)N[C@@H](CCCNC(=N)N)C(=O)N1CCC[C@H]1C(=O)N1CCC[C@H]1C(=O)NCC(=O)N[C@@H](Cc1ccccc1)C(=O)N[C@@H](CO)C(=O)N[C@H](Cc1ccc2ccccc2c1)C(=O)N[C@@H](CC(C)C)C(=O)O [Compound 18, AcLys(D-βNal^7, Leu^8)desArg^9BK] (Ac-KRPPGFS[d2Nal]L-OH; C-terminus assumed) | – | 35.5 | Inactive | 0 | –
CC[C@H](C)[C@H](NC(=O)[C@H](Cc1ccc2ccccc2c1)NC(=O)[C@H](CO)NC(=O)[C@H](Cc1ccccc1)NC(=O)CNC(=O)[C@@H]1CCCN1C(=O)[C@@H]1CCCN1C(=O)[C@H](CCCNC(=N)N)NC(=O)[C@H](CCCCN)NC(C)=O)C(=O)O [Compound 20, AcLys(L-βNal^7, Ile^8)desArg^9BK] (Ac-KRPPGFS[2Nal]I-OH; C-terminus assumed) | – | 6920 | Inactive | 0 | –
CC(C)C[C@H](NC(=O)[C@@H](Cc1ccc2ccccc2c1)NC(=O)[C@H](CO)NC(=O)[C@H](Cc1ccccc1)NC(=O)CNC(=O)[C@@H]1CCCN1C(=O)[C@@H]1CCCN1C(=O)[C@H](CCCNC(=N)N)NC(=O)[C@H](N)CCCNC(=N)N)C(=O)O [Compound 24, D-Arg(D-βNal^7, Leu^8)desArg^9BK] (H-[dR]RPPGFS[d2Nal]L-OH; N-terminus and C-terminus assumed) | – | 50.1 | Inactive | – | –
CC[C@H](C)[C@H](NC(=O)[C@@H](Cc1ccc2ccccc2c1)NC(=O)[C@H](CO)NC(=O)[C@H](Cc1ccccc1)NC(=O)CNC(=O)[C@@H]1CCCN1C(=O)[C@@H]1CCCN1C(=O)[C@H](CCCNC(=N)N)NC(=O)CNC)C(=O)O [Compound 26, Sar(D-βNal^7, Ile^8)desArg^9BK] (H-[Sar]RPPGFS[d2Nal]I-OH; N-terminus and C-terminus assumed) | – | 47.9 | Inactive | – | –
CC[C@H](C)[C@H](NC(=O)[C@@H](Cc1ccc2ccccc2c1)NC(=O)[C@H](CO)NC(=O)[C@H](Cc1ccccc1)NC(=O)CNC(=O)[C@@H]1CCCN1C(=O)[C@@H]1CCCN1C(=O)[C@H](CCCNC(=N)N)NC(=O)[C@H](CCCCN)NC(=O)CCCCCNC(=O)[C@H](Cc1ccc(O)cc1)NC(=O)CNC)C(=O)O [Compound 29, SarTyrεAhxLys(D-βNal^7, Ile^8)desArg^9BK] (H-[Sar]Y[Ahx]KRPPGFS[d2Nal]I-OH; N-terminus and C-terminus assumed) | – | 4.07 | Inactive | – | –
CC[C@H](C)[C@H](NC(=O)[C@@H](Cc1ccc2ccccc2c1)NC(=O)[C@H](CO)NC(=O)[C@H](Cc1ccccc1)NC(=O)CNC(=O)[C@@H]1CCCN1C(=O)[C@@H]1CCCN1C(=O)[C@H](CCCNC(=N)N)NC(=O)[C@H](CCCCN)NC(=O)CCCCCNC(=O)[C@H](Cc1cc(I)c(O)c(I)c1)NC(=O)CNC)C(=O)O [Compound 30, SarTyr(3,5-I)εAhxLys(D-βNal^7, Ile^8)desArg^9BK] (H-[Sar][Tyr(3,5-I2)][Ahx]KRPPGFS[d2Nal]I-OH; N-terminus and C-terminus assumed) | – | 4.79 | Inactive | – | –
N=C(N)NCCC[C@@H](N)C(=O)N[C@@H](CCCNC(=N)N)C(=O)N1CCC[C@H]1C(=O)N1C[C@H](O)C[C@H]1C(=O)NCC(=O)N[C@@H](Cc1cccs1)C(=O)N[C@@H](CO)C(=O)N1Cc2ccccc2C[C@@H]1C(=O)N1[C@H](C(=O)O)C[C@@H]2CCCC[C@@H]21 [Compound 31, D-Arg(Hyp^3, Thi^5, D-Tic^7, Oic^8)desArg^9BK, reference compound] (H-[dR]RP[Hyp]G[2Thi]S[dTic][Oic]-OH; N-terminus and C-terminus assumed) | – | 51.3 | Inactive | – | 7.29
